These results are taken from patent US20220249590A1, “EFFICACY OF GARLIC THERAPY IN CONTROLLING INFLAMMATORY CYTOKINES AND CARTILAGE DEGRADATION IN KNEE OSTEOARTHRITIS AND IMPROVING QUALITY OF LIFE” (priority 2021, published 2022).

The subject of assay [1] is collagenase. Kind of assay: Study II: level of collagenase. Format: in vivo, human. The conditions noted are these: garlic capsules 900 mg daily or glucosamine sulfate 1500 mg daily, 8 weeks; no difference between the groups. The protocol: (§1) Garlic group receive 900 mg of garlic capsules daily for 8 weeks. The glucosamine group received 1500 mg glucosamine sulfate daily for 8 weeks. As regard baseline affection of knee in both groups. The garlic group has bilateral knee OA in 100% of patients and significant knee deformity compared to glucosamine group who were having only Bilateral knee affection in 70% of patients.

Assay [2] deals with knee osteoarthritis patients. As to the kind of experiment: Study II: garlic versus glucosamine sulphate, clinical manifestations. The class given is in vivo, human. The protocol:
In the second study, I had compared the effect of garlic versus glucosamine on cartilage degeneration in knee osteoarthritis patients. I have chosen glucosamine sulfate to be the comparing drug due to its well known chondroprotective properties and it has been in the market for a while to control the symptoms of knee osteoarthritis.
as §1

Assay [3] has as its system MMP13. As to the kind of experiment: Study II: level of MMP13. Format: in vivo, human. The conditions noted are these: garlic capsules 900 mg daily or glucosamine sulfate 1500 mg daily, 8 weeks; no difference between the groups. How it is done: as §1
Assay [4] has as its system glutathione peroxidase. Kind of assay: Study II: level of glutathione peroxidase. The class given is in vivo, human. The conditions noted are these: garlic capsules 900 mg daily or glucosamine sulfate 1500 mg daily, 8 weeks; no difference between the groups. The protocol:
as §1

For assay [5], the system named is adjuvant arthritis. The conditions noted are these: adjuvant arthritis in rats; cited from earlier work.
The subject of assay [6] is lupus mice. The conditions noted are these: cited from earlier work.
The subject of assay [7] is rheumatoid arthritis patients. The conditions noted are these: selenium intake; cited from earlier work.
The test system of assay [8] is mice knee osteoarthritis. The conditions noted are these: after intake of diet rich in selenium; cited from earlier work.
Assay [9] has as its system glutathione peroxidase. To be noted: mice, after intake of diet rich in selenium; cited from earlier work.

For the compound `N[C@H]1C(O)O[C@H](CO)[C@@H](O)[C@@H]1O.O=S(=O)(O)O` (some centres unmarked) [glucosamine sulfate], the level of collagenase result in [1] is given as “significant reduction”. The “body mass index, mean percent change” value in assay [2] (end of study, glucosamine group vs garlic group) is on record as “higher mean percent change than garlic group”. Further, the pain score result in assay [2] (garlic capsules 900 mg daily or glucosamine sulfate 1500 mg daily, 8 weeks) is on record as “significantly improved in both groups with no difference between groups”. In [2] (garlic capsules 900 mg daily or glucosamine sulfate 1500 mg daily, 8 weeks, end of study vs baseline), the body mass index result is “did not significantly change”. For the same compound, the “level of MMP13” value in assay [3] is recorded as “significant reduction”. In addition, the “level of glutathione peroxidase” value in assay [4] is recorded as “significant reduction”.
As to `[Se]` [selenium], the indices of inflammation entry in assay [5] and in [6] was “improved indices of inflammation” throughout. For the same compound, the “pain, swollen and tender joints numbers” value in assay [7] is recorded as “reduction”. In assay [8], the mice knee osteoarthritis entry is “significant reduction”. In addition, in assay [9], the “expression of glutathione peroxidase in synovium” value is reported as “increased expression”.
